The record followed here is patent US20220187282A1, “CARDIOMYOCYTE PROLIFERATION” (The Council of the Queensland Institute of Medical Research, priority 2019, published 2022).

The subject of one test is mature hCO. Put plainly: RNA-sequencing of mature hCO treated with compounds. Format: cell-based, human. Conditions: 2 days; for genes regulated (RNA-seq): 3 μM compound 3, 0.3 μM compound 63, 1 μM compound 65. How it is done:
For each experiment 15-20 hCOs were pooled, snap frozen and RNA extracted using Trizol (ThermoFisher Scientific), treated with DNAse (Qiagen) and purified using RNeasy Minielute Cleanup Kit (Qiagen). The quality of the RNA was assessed by Fragment Analyzer (Advances Analytical Technologies) and samples with RNA quality number >8.9 were used for library preparation. RNA samples were processed with Illumina TruSeq Stranded mRNA Library prep kit selecting for poly(A) tailed RNA following the manufacturer's recommendations. Libraries were quantified with Qubit HS (ThermoFisher) and Fragment Analyzer (Advances Analytical Technologies) adjusted to the appropriate concentration for sequencing. Indexed libraries were pooled and sequenced at a final concentration of 1.8 pmol/L on an Illumina NextSeq 500 high-output run using paired-end chemistry with 75 bp read length.
The sequencing data was demultiplexed using Illumina bc12fastq2-v2.17. The quality of the reads was assessed thanks to FastQC (https://www.bioinformatics.babraham.ac.uk/projects/fastqc/). The reads were then processed and mapped to the human genome hg38 using the Bcbio-nextgen framework version 1.0.3 (https://github.com/chapmanb/bcbio-nextgen). The aligner used was HISAT2 2.0.5. For sample quality assessment, raw counts were normalised with DESeq2 regularized logarithm function. A principal component analysis (PCA) was performed using R v 3.3.1(Team, 2015) and led to the detection of a batch effect among samples which was corrected using the removeBatchEffect function from Limma v3.30.13. The identification of the differentially expressed genes between treated and non-treated samples was performed using DESeq2 v1.14.1 (Love et al., 2014) in R v 3.3.1 (Team, 2015) using the design ˜Batch+Compound to account for the batch effect directly. A FDR of 0.1 was defined to call for differentially expressed genes. The mechanistic networks in were generated using IPA upstream analysis (QIAGEN Inc., https://www.qiagenbioinformatics.com/products/ingenuity-pathway-analysis). Gene Ontology (GO) annotations enrichment analyses were performed with GOSeq v1.28.0 (Young et al., 2010), were generated in R using ggplot2 (http://ggplot2.tidyverse.org/index.html) and package GOSemSim v2.2.0 (Yu et al., 2010) for term similarities.
In order to determine the biological processes driving the pro-proliferative effects of our hit compounds, we performed RNA-sequencing (RNA-seq) and single organoid quantitative proteomics (FIG. 4A). These analyses were performed on hCOs treated with compounds 3, 63 and 65 at concentrations of 3 μM, 0.3 μM and 1 μM, respectively. RNA-seq for hCO treated with compounds 3 and 65 clustered distinctly in principal component analysis (FIG. 4B) and regulated a total of 239 and 207 genes (FIG. 9A), respectively.

The subject of another test is immature hCOs. Put plainly: immature hCO screen, Ki-67 intensity (proliferation). It is filed as cell-based, human. Conditions: for proliferation in immature hCO (Ki-67 intensity): 0.1, 1 and 10 μM, 2 days; for hCO Screen Max Effect (%): maximum over 0.1, 1, 10 uM. The procedure: Heart-dyno culture inserts were fabricated using standard SU-8 photolithography and PDMS molding practices (Mills et al., 2017a). CTRL medium: α-MEM GlutaMAX (ThermoFisher Scientific), 10% fetal bovine serum (FBS) (ThermoFisher Scientific), 200 μM L-ascorbic acid 2-phosphate sesquimagnesium salt hydrate (Sigma) and 1% Penicillin/Streptomycin (ThermoFisher Scientific). For each hCO, 5×10^4 cardiac cells in CTRL medium were mixed with collagen I to make a 3.5 μL final solution containing 2.6 mg/mL collagen I and 9% Matrigel. The bovine acid-solubilized collagen I (Devro) was first salt balanced and pH neutralized using 10×DMEM and 0.1 M NaOH, respectively, prior to mixing with Matrigel and cells. The mixture was prepared on ice and pipetted into the Heart-Dyno. The Heart-Dyno was then centrifuged at 100×g for 10 s to ensure the hCO form halfway up the posts. The mixture was then gelled at 37° C. for 60 min prior to the addition of CTRL medium to cover the tissues (150 μL/hCO). The Heart-Dyno design facilitates the self-formation of tissues around in-built PDMS exercise poles (designed to deform ˜0.07 μm/μN). The medium was changed every 2-3 days (150 μL/hCO).
hCOs were cultured in CTRL medium for formation for 5 days and then either kept in CTRL medium culture or changed to maturation medium (Mills et al., 2017a) comprising DMEM without glucose, glutamine and phenol red (ThermoFisher Scientific) supplemented with 4% […](without insulin) (ThermoFisher Scientific), 1% GlutaMAX (ThermoFisher Scientific), 200 μM L-ascorbic acid 2-phosphate sesquimagnesium salt hydrate and 1% Penicillin/Streptomycin (ThermoFisher Scientific), 1 mmol/L glucose and 100 μmon palmitic acid (conjugated to bovine serum albumin within B27 by incubating for 2h at 37° C., Sigma) with changes every 2-3 days.
Whole-Mount Immunostaining hCOs were fixed for 60 min with 1% paraformaldehyde (Sigma) at room temperature and washed 3× with PBS, after which they were incubated with primary antibodies (see Star Methods Table) in Blocking Buffer, 5% FBS and 0.2% Triton-X-100 (Sigma) in PBS overnight at 4° C. Cells were then washed in Blocking Buffer 2× for 2 h and subsequently incubated with secondary antibodies (see Star Methods Table) and Hoechst33342 (1:1000) overnight at 4° C. They were washed in Blocking Buffer 2× for 2 h and imaged in situ or mounted on microscope slides using Fluoromount-G (Southern Biotech).
For screening hCOs were imaged using a Leica DMi8 high content imaging microscope for in situ imaging. Custom batch processing files were written in Matlab R2013a (Mathworks) to remove the background, calculate the image intensity, and export the batch data to an Excel (Microsoft) spreadsheet.
The compound library included 5,000 biologically annotated pre-clinical, clinical, and tool compounds. They were selected based on a combination of criteria including balancing the number of external/internal compounds, diversity of annotated targets to cover greater than 1500 biological targets, and known targets associated with cell proliferation. […] Both negative vehicle (DMSO) and positive (CHIR99021) controls were included on each plate in each experiment (FIG. 2B,C).

The structures appear in SMILES notation.

Consider `Cc1ccc(NC(=O)c2ccnc(N3CCOCC3)c2)cc1Nc1ccnc(N2CC(C)OC(C)C2)n1` (stereo not drawn) [compound 3], for which, in the test on mature hCO, the “network significantly regulated (network analysis of RNA-seq)” value was “MAPK14 (p38α) network” and the “genes regulated (RNA-seq)” value was 239 genes. Further, in the test with mature hCO (3 μM), the “transcription of cell cycle controllers PLK1, CCNB2, CCND1, CCNA2 and FOXM1” value is recorded as “upregulated”. Moreover, in the test on immature hCOs, the “hCO Screen 0.1 uM Prolif Activation Ki-67 (%)” value was determined as 299%, the “hCO Screen 1 uM Prolif Activation Ki-67 (%)” value was found to be 23%, the “hCO Screen 10 uM Prolif Activation Ki-67 (%)” value is given as 111% and the “proliferation in immature hCO (Ki-67 intensity)” value is listed as “induced proliferation”. Besides, in the test on immature hCOs, the “hCO Screen Max Effect (%)” value is given as 299%.

Take `Cc1cc(Oc2ccnc(Nc3ccc(S(N)(=O)=O)cc3)c2)c(-c2ccccn2)nc1C` [compound 65]: in the test with mature hCO, the “network significantly regulated (network analysis of RNA-seq)” value was “TGFβ receptor (TGFβR) and bone morphogenic protein receptor (BMPR) networks”; the “genes regulated (RNA-seq)” value is given as 207 genes. In addition, in the test with mature hCO (1 μM), the “mevalonate pathway enzymes SQLE, HMGCS1 and CYP51A1” value is “activated”; the “networks regulated based on RNA-seq data (gene ontologies)” value was “an extracellular matrix network and a cholesterol biosynthesis network”; the “transcription of CDKN2B (p15)” value is recorded as “inhibited”. In the test with immature hCOs, the “hCO Screen 0.1 uM Prolif Activation Ki-67 (%)” value is on record as −38%, the “hCO Screen 1 uM Prolif Activation Ki-67 (%)” value is listed as 96%, the “hCO Screen 10 uM Prolif Activation Ki-67 (%)” value was 121% and the “proliferation in immature hCO (Ki-67 intensity)” value is on record as “induced proliferation”. For the same compound, the “hCO Screen Max Effect (%)” value with immature hCOs is 121%.
